Results on two compounds are retold here after ChEMBL document CHEMBL1129854, “Novel small molecule neurotensin antagonists: 3-(1,5-diaryl-1,5-dioxopentan-3-yl)benzoic acids” (Bioorg Med Chem Lett, 1997).

Usually Ki stands for the equilibrium dissociation constant of an inhibitor or competing ligand from its target. Broadly, the IC50 is the midpoint of a concentration-inhibition curve.

A short description of assay [1]: Inhibition of the binding of [3H]NT to neurotensin (NT) receptor in mouse brain tissue. The format is tissue-based.
For the next assay, the system named is HT-29. In words: In vitro ability to inhibit the calcium mobilization induced by neurotensin (NT) in HT-29 cells. The format is functional, cell-based. Particulars: Homo sapiens. (In general: Calcium flux is commonly read through the fluorescence of an indicator in the cells.)

In turn, `O=C(O)c1cccc(C(CC(=O)c2ccccc2)CC(=O)c2ccccc2)c1` yielded an inhibition constant (Ki) in assay [1] greater than 10000 nM.

With `COc1cccc(OC)c1-c1cc(C(=O)NC2(C(=O)O)C3CC4CC(C3)CC2C4)nn1-c1ccnc2cc(Cl)ccc12` (stereo not drawn) [REMINERTANT], the 50% inhibitory concentration (IC50) in the assay with HT-29 came out at 160 nM. The compound further gave a Ki in assay [1] of 3.9 nM.
